The target of experiment [1] is T1, human TLR2 (Homo sapiens, UniProt O60603).
T1 construct: host or cells: HEK-Blue hTLR2 (HEK-293)
The experiment can be described thus: HEK-Blue hTLR2 antagonism assay (SEAP reporter) with agonist Pam2CSK4 (TLR2/6 agonist). Type of experiment: cell-based. The following applies: HEK-Blue hTLR2 cells, ~3×EC50 Pam2CSK4, 18 h, SEAP OD 655 nm, 8-point dilutions. The method, then: (§1) Synthetic diacylated lipoprotein (Pam2CSK4, TLR2/6 agonist) and synthetic triacylated lipoprotein (Pam3CSK4, TLR1/2 agonist) were obtained from InvivoGen and were dissolved in endotoxin-free water to a concentration 1 mg/mL, vortexed until complete solubilization, and stored in aliquots at −20° C. Prior to addition to cells, an aliquot of the dissolved ligand was vortexed shortly and then was diluted in medium to 25 ng/mL Pam2CSK4 or 1000 ng/mL Pam3CSK4.
(§2) Test compounds were solubilized fresh to 10-20 mM stocks in DMSO and sonicated for 5-10 minutes in a water bath sonicator. Serial dilutions were prepared in DMSO, and then diluted in medium. The final concentration of DMSO used in the assay was 1%.
(§3) HEK-Blue hTLR2 reporter cells (InvivoGen) are HEK-293 cells stably expressing both the human TLR2 gene and a secreted embryonic alkaline phosphatase (SEAP) reporter construct downstream of NFκB promotor sites. HEK-Blue hTLR2 reporters were cultured according to manufacturer's protocol using Dulbecco's Modified Eagle Medium (DMEM; Gibco) containing 1× GlutaMax (Gibco), 10% heat-inactivated Fetal Bovine Serum (Gibco), Pen-Strep (50 U/mL penicillin, 50 μg/mL streptomycin, Gibco), 100 μg/mL Normocin (InvivoGen), and the selective antibiotic, 1×HEK-Blue Selection (InvivoGen). Quanti-Blue reagent (InvivoGen) for detection and quantification of secreted alkaline phosphatase was dissolved in 100 mL of endotoxin-free water, warmed to 37° C. for 30 minutes and then filtered using a 0.2 μm membrane.
(§4) On day 1, 50 μL of each test compound dilution in duplicates or a vehicle control was added to each well of a 96-well plate followed by addition of 150 μL of HEK-Blue hTLR2 cell suspension (1×10^5 cells/well) and incubated at 37° C./5% CO2 for 2 h. Next, 50 μL of an approximate 3×EC50 concentration of each agonist (Pam2CSK4 or Pam3CSK4) was added to the wells containing test compounds or the vehicle control. The plates were then incubated at 37° C./5% CO2 for 18 h. For each assay run, non-treated HEK-Blue hTLR2 cells were treated with serial dilutions of agonists to determine EC50 values for the respective run.
(§5) On day 2, secreted alkaline phosphatase (SEAP) activity was detected in cell culture supernatants. In brief, 20 μL was collected from each well and transferred to a 96-well plate. Next, 200 μL of Quanti-Blue detection reagent was added to each well. Plates were incubated at room temperature for 15 min. and SEAP activity was assessed by spectrophotometer OD reading at 655 nm. […] IC50 values were calculated based on 8-point dilutions for each compound.

Experiment [2] deals with T1, human TLR2. Kind of experiment: HEK-Blue hTLR2 antagonism assay (SEAP reporter) with agonist Pam3CSK4 (TLR1/2 agonist). Type of experiment: cell-based. The note with it: HEK-Blue hTLR2 cells, ~3×EC50 Pam3CSK4, 18 h, SEAP OD 655 nm, 8-point dilutions. The method, then: as §1, §2, §3, §4, §5

The structures appear in SMILES notation.

T1 sequence (O60603 21-784): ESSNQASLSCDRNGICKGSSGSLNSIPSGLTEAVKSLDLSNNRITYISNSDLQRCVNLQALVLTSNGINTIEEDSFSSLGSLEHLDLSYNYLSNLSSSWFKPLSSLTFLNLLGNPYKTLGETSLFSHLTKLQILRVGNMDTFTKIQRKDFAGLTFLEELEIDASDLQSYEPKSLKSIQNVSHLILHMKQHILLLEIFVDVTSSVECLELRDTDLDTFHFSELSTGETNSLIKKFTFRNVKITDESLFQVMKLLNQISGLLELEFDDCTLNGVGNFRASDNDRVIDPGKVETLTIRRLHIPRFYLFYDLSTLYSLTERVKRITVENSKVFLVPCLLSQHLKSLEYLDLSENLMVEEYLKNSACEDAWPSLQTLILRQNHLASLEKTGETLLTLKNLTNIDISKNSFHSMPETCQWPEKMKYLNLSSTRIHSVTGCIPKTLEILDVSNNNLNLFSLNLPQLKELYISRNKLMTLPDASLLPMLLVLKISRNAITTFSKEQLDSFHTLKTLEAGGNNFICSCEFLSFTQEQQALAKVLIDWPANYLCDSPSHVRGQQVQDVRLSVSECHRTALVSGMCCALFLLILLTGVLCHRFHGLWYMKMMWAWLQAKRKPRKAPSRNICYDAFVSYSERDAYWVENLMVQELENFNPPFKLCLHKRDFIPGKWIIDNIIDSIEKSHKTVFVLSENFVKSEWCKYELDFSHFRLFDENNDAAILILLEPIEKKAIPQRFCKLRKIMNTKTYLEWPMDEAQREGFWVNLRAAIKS

As to `O=Cc1cc(-c2nc(-c3ccccc3)co2)cc(F)c1O` [Compound A90, 3-fluoro-2-hydroxy-5-(4-phenyloxazol-2-yl)benzaldehyde], the results for the half-maximal inhibitory concentration (IC50) at human TLR2 [1] (Table A) and on human TLR2 [2] (Table A) were 6.5 µM and 4.5 µM, respectively.
The like results for `O=Cc1cc(-c2csc(-c3ccc(Cl)cc3)n2)cc(F)c1O` [Compound A92, 5-(2-(4-chlorophenyl)thiazol-4-yl)-3-fluoro-2-hydroxybenzaldehyde] were, in that order, 3.5 µM and 0.9 µM.
`O=Cc1cc(-c2csc(-c3ccc(N4C[C@H]5CCC[C@H]5C4)cc3)n2)cc(F)c1O` [Compound A97, 3-fluoro-5-(2-(4-((3aR,6aS)-hexahydrocyclopenta[c]pyrrol-2(1H)-yl)phenyl)thiazol-4-yl)-2-hydroxybenzaldehyde]: the figures for the IC50 on human TLR2 [1] (Table A) and on human TLR2 [2] (Table A) were 0.9 µM and 0.3 µM, respectively.
In the case of `Cc1nc(-c2ccc(N3CCCC3)cc2)sc1-c1cc(F)c(O)c(C=O)c1` [Compound A98, 3-fluoro-2-hydroxy-5-(4-methyl-2-(4-(pyrrolidin-1-yl)phenyl)thiazol-5-yl)benzaldehyde], the IC50 on human TLR2 [1] (Table A) was determined as 1.4 µM; on human TLR2 [2] (Table A), 1 µM.
As for `O=Cc1cc(-c2cnc(-c3ccccc3)s2)ncc1O` [Compound A99, 5-hydroxy-2-(2-phenylthiazol-5-yl)isonicotinaldehyde], the results for the IC50 on human TLR2 [1] (Table A) and on human TLR2 [2] (Table A) were 3.3 µM and 2.2 µM, respectively.
With `CC1(C)CCN(c2ccc(-c3nsc(-c4cc(F)c(O)c(C=O)c4)n3)cc2)C1` [Compound A100, 5-(3-(4-(3,3-dimethylpyrrolidin-1-yl)phenyl)-1,2,4-thiadiazol-5-yl)-3-fluoro-2-hydroxybenzaldehyde], the IC50 on human TLR2 [1] (Table A) worked out at 1.4 µM; at human TLR2 [2] (Table A), 0.6 µM.
Take `O=Cc1cc(-c2cnc(-c3cccc(N4CCCC4)c3)s2)cc(F)c1O` [Compound A101, 3-fluoro-2-hydroxy-5-(2-(3-(pyrrolidin-1-yl)phenyl)thiazol-5-yl)benzaldehyde]: the IC50 on human TLR2 [1] (Table A) stood at 3.2 µM; on human TLR2 [2] (Table A) it was 1 µM.
For `O=Cc1cc(-c2cnc(-c3ccc(N4CCCC4)nc3)s2)cc(F)c1O` [Compound A102, 3-fluoro-2-hydroxy-5-(2-(6-(pyrrolidin-1-yl)pyridin-3-yl)thiazol-5-yl)benzaldehyde] the same measures were 1.9 µM and 1 µM.
Consider `Cc1nc(-c2cccc(N3CCCC3)c2)sc1-c1cc(F)c(O)c(C=O)c1` [Compound A103, 3-fluoro-2-hydroxy-5-(4-methyl-2-(3-(pyrrolidin-1-yl)phenyl)thiazol-5-yl)benzaldehyde], for which the IC50 stood at 3.9 µM at human TLR2 [1] (Table A) and 1.3 µM at human TLR2 [2] (Table A).
For the molecule `Cc1nc(-c2ccc(N3CCCC3)nc2)sc1-c1cc(F)c(O)c(C=O)c1` [Compound A104, 3-fluoro-2-hydroxy-5-(4-methyl-2-(6-(pyrrolidin-1-yl)pyridin-3-yl)thiazol-5-yl)benzaldehyde], the results for the IC50 on human TLR2 [1] (Table A) and at human TLR2 [2] (Table A) were 6.8 µM and 3.9 µM, respectively.
On to `CC1(C)CCN(c2ccc(-c3csc(-c4cc(F)c(O)c(C=O)c4)n3)cc2)C1` [Compound A105, 5-(4-(4-(3,3-dimethylpyrrolidin-1-yl)phenyl)thiazol-2-yl)-3-fluoro-2-hydroxybenzaldehyde], for which the concentration for half-maximal inhibition (IC50) on human TLR2 [1] (Table A) was 1.9 µM; on human TLR2 [2] (Table A), 0.5 µM.
`O=Cc1cc(-c2cnc(-c3ccc(N4CCCC4)cc3)s2)ncc1O` [Compound A112, 5-hydroxy-2-(2-(4-(pyrrolidin-1-yl)phenyl)thiazol-5-yl)isonicotinaldehyde]: the IC50 on human TLR2 [1] (Table A) was determined as 0.3 µM; at human TLR2 [2] (Table A), 0.2 µM.
Turning to `O=Cc1cc(-c2cnc(-c3cnc(N4CCCC4)c(C(F)(F)F)c3)s2)cc(F)c1O` [Compound A114, 3-fluoro-2-hydroxy-5-(2-(6-(pyrrolidin-1-yl)-5-(trifluoromethyl)pyridin-3-yl)thiazol-5-yl)benzaldehyde], the IC50 was 0.7 µM on human TLR2 [1] (Table A) and 0.4 µM on human TLR2 [2] (Table A).
In the case of `O=Cc1cc(-c2cnc(-c3ccc(N4CC5(CCC5)C4)cc3)s2)cc(F)c1O` [Compound A116, 5-(2-(4-(2-azaspiro[3.3]heptan-2-yl)phenyl)thiazol-5-yl)-3-fluoro-2-hydroxybenzaldehyde], the IC50 on human TLR2 [1] (Table A) worked out at 1.3 µM; at human TLR2 [2] (Table A), 0.6 µM.
Turning to `O=Cc1cc(-c2csc(-c3ccc(N4CCCC4)nc3)n2)cc(F)c1O` [Compound A123, 3-fluoro-2-hydroxy-5-(2-(6-(pyrrolidin-1-yl)pyridin-3-yl)thiazol-4-yl)benzaldehyde], the IC50 amounted to 1.7 µM at human TLR2 [1] (Table A) and 1.5 µM on human TLR2 [2] (Table A).
Turning to `O=Cc1cc(-c2csc(-c3cccc(N4CCCC4)c3)n2)cc(F)c1O` [Compound A124, 3-fluoro-2-hydroxy-5-(2-(3-(pyrrolidin-1-yl)phenyl)thiazol-4-yl)benzaldehyde], the half-maximal inhibitory concentration (IC50) on human TLR2 [1] (Table A) was 1.7 µM; at human TLR2 [2] (Table A) it was 1 µM.
Regarding `O=Cc1cc(-c2nsc(-c3cccc(N4CCCC4)c3)n2)cc(F)c1O` [Compound A125, 3-fluoro-2-hydroxy-5-(5-(3-(pyrrolidin-1-yl)phenyl)-1,2,4-thiadiazol-3-yl)benzaldehyde], the IC50 at human TLR2 [1] (Table A) stood at 3.3 µM; at human TLR2 [2] (Table A), 2 µM.
In the case of `O=Cc1cc(-c2csc(-c3ccc(N4CCCCC4)nc3)n2)cc(F)c1O` [Compound A126, 3-fluoro-2-hydroxy-5-(2-(6-(piperidin-1-yl)pyridin-3-yl)thiazol-4-yl)benzaldehyde], the figures for the IC50 on human TLR2 [1] (Table A) and on human TLR2 [2] (Table A) were 1.1 µM and 0.6 µM, respectively.
With `O=Cc1cc(-c2cnc(-c3ccc(N4CCCCC4)nc3)s2)cc(F)c1O` [Compound A127, 3-fluoro-2-hydroxy-5-(2-(6-(piperidin-1-yl)pyridin-3-yl)thiazol-5-yl)benzaldehyde], the values for the IC50 on human TLR2 [1] (Table A) and on human TLR2 [2] (Table A) were 1.2 µM and 0.7 µM, respectively.
For the molecule `O=Cc1cc(C#Cc2ccc(N3CCCCC3)cc2)cc(F)c1O` [Compound B2, 3-fluoro-2-hydroxy-5-((4-(piperidin-1-yl)phenyl)ethynyl)benzaldehyde], the IC50 on human TLR2 [1] (Table B) turned out to be 0.5 µM; at human TLR2 [2] (Table B), 0.3 µM.
Regarding `O=Cc1c(O)cc(C#Cc2ccc(N3CCCCC3)cc2)cc1F` [Compound B5, 2-fluoro-6-hydroxy-4-((4-(piperidin-1-yl)phenyl)ethynyl)benzaldehyde], the IC50 at human TLR2 [1] (Table B) turned out to be 1.9 µM; on human TLR2 [2] (Table B) it was 1.1 µM.
Take `O=Cc1c(O)cc(C#Cc2ccc(N3CCOCC3)cc2)cc1F` [Compound B6, 2-fluoro-6-hydroxy-4-((4-morpholinophenyl)ethynyl)benzaldehyde]: the half-maximal inhibitory concentration (IC50) at human TLR2 [1] (Table B) came out at 3.8 µM; at human TLR2 [2] (Table B), 1.8 µM.
For `COc1cc(C#Cc2ccc(N3CCOCC3)cc2)cc(C=O)c1O` [Compound B8, 2-hydroxy-3-methoxy-5-((4-morpholinophenyl)ethynyl)benzaldehyde], the figures for the half-maximal inhibitory concentration (IC50) on human TLR2 [1] (Table B) and at human TLR2 [2] (Table B) were 2.9 µM and 1.6 µM, respectively.
As to `O=Cc1cc(NC(=O)c2ccccc2)cc(F)c1O` [Compound B9, N-(3-fluoro-5-formyl-4-hydroxyphenyl)benzamide], the IC50 at human TLR2 [1] (Table B) came to 8.1 µM; at human TLR2 [2] (Table B), 6.8 µM.
Take `O=Cc1cc(NC(=O)Nc2ccccc2)cc(F)c1O` [Compound B10, 1-(3-fluoro-5-formyl-4-hydroxyphenyl)-3-phenylurea]: the IC50 at human TLR2 [1] (Table B) was found to be 11.6 µM; on human TLR2 [2] (Table B), 7.2 µM.
For `O=Cc1cc(C(=O)Nc2ccc(C(F)(F)F)cc2)cc(F)c1O` [Compound B13, 3-fluoro-5-formyl-4-hydroxy-N-(4-(trifluoromethyl)phenyl)benzamide] the same measures were 1.9 µM and 1.9 µM.
As for `O=Cc1cc(C(=O)Nc2cnc(N3CCCC3)nc2)cc(F)c1O` [Compound B59, 3-fluoro-5-formyl-4-hydroxy-N-(2-(pyrrolidin-1-yl)pyrimidin-5-yl)benzamide], the IC50 on human TLR2 [1] (Table B) stood at 32.7 µM; at human TLR2 [2] (Table B), 19.8 µM.
Regarding `O=Cc1cc(C(=O)Nc2ccc(N3CCCC3)nc2)cc(F)c1O` [Compound B61, 3-fluoro-5-formyl-4-hydroxy-N-(6-(pyrrolidin-1-yl)pyridin-3-yl)benzamide], the results for the concentration for half-maximal inhibition (IC50) at human TLR2 [1] (Table B) and on human TLR2 [2] (Table B) were 16.4 µM and 9.3 µM, respectively.

Usually IC50 stands for the concentration that gives 50% inhibition. A low value points to greater potency.

Values taken from patent publication US11299487B2, “Compounds and compositions as modulators of TLR signaling” (Neuropore Therapies, Inc., priority 2019, dated 2022).
